Measurements from patent US20240294551A1 (AMGEN INC., priority 2022, published 2024).
Where a name gives a salt, the structure may show the parent alone. Read-outs that look alike come from different tables or passages of the source.

What was measured:
[1] = molecular target: His-tagged KRAS G12D protein (Homo sapiens (Human), UniProt P01116, G12D); test: KRAS G12D TR-FRET Assay; format: binding
How it was run: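 Each incubation ran at room temperature: enzyme with compound for 30 minutes, peptide for one hour, and detection reagents (0.4 nM europium anti-6×His, 5 nM streptavidin-d2) for one hour more. Protein and peptide stocks were each diluted to 20 nM before addition.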

[2] = molecular target: GDP-bound KRAS protein (aa 1-169), containing both G12D and C118A amino acid substitutions (Homo sapiens (Human), UniProt P01116, C118A/G12D); test: KRAS G12D Coupled Nucleotide Exchange Assay; format: biochemical
[3] = tested on: Phosphorylation of ERK1/2 in AsPC-1 cells; test: Phospho-ERK1/2 MSD Assay; format: cell-based, human
How it was run: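 Read-out: MSD electrochemiluminescent detection of phosphorylated ERK1/2 in whole-cell lysates, fitted to a 4-parameter logistic curve for IC50. Prior to lysis, AsPC-1 cells (25,000 per well) received a 2 h compound dose-response at 37 °C.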

AsPC-1 cells = test: AsPC-1 CTG Assay (CellTiter-Glo cell viability); format: cell-based, human; details: first value of the cell, read-out: G12D/C/V Cell Proliferation CTG (72 h) AsPC-1
How it was run: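 IC50 values derive from 4-parameter logistic fits of CellTiter-Glo luminescence, expressed relative to DMSO. Compound dilution series were applied to overnight-seeded AsPC-1 or SW620 cells (RPMI 1640, 10% FBS) for 72 h at 37 °C, 5% CO2.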

[4] = read-out: KRAS G12D Binding IC50
[5] = read-out: KRAS G12D Coupled Exchange IC50
[6] = 2 h, read-out: 2 h p-ERK (AsPC-1 cells), IC50
[7] = Homo sapiens, ASPC1, 2 h, read-out: 2 h p-ERK (AsPC-1 cells), IC50
[8] = Homo sapiens, ASPC1, 72 h, AsPC-1, 72 h
[9] = TR-FRET, read-out: KRAS G12D Binding
[10] = 2 hours compound pre-incubation, read-out: KRAS G12D Coupled Exchange
[11] = Homo sapiens, ASPC1, 2 h, read-out: 2 h p-ERK (AsPC-1 cells)
[12] = Homo sapiens, ASPC1, 72 h, AsPC-1 cells (G12D), 72 h

Molecule	IC50 [1, 4]	IC50 [2, 5]	IC50 [3, 6]	IC50 (AsPC-1 cells; AsPC-1, 72 h)	IC50 [3, 7]	IC50 (AsPC-1 cells; [8])	IC50 [1, 9]	IC50 [2, 10]	IC50 [3, 11]	IC50 (AsPC-1 cells; [12])
(15R)-22,31-Difluoro-8-(((2R,7aS)-2-fluorotetrahydro-1H-pyrrolo[1,2-a]pyrrol-7a(5H)-yl)methoxy)-27-hydroxy-15-methyl-16-oxa-3,7,9,11-tetraazahexacyclo[19.7.1.1˜2,6˜.1˜11,15˜0.0˜5,10˜.0˜25,29˜]hentriaconta-1(28),2(31),3,5,7,9,21,23,25(29),26-decaen-17-one bis(2,2,2-trifluoroacetate) [Example 43]	4 nM	2 nM	13 nM	92 nM						
C[C@@]12CCCN(C1)c1nc(OC[C@@]34CCCN3C[C@H](F)C4)nc3c(F)c(ncc13)-c1cccc3ccc(F)c(c13)CCOC(=O)N2 [Example 77, (15R)-22,31-difluoro-8-(((2R,7aS)-2-fluorotetrahydro-1H-pyrrolo[1,2-a]pyrrol-7a(5H)-yl)methoxy)-15-methyl-18-oxa-3,7,9,11,16-pentaazahexacyclo[19.7.1.1~2,6~.1~11,15~.0~5,10~.0~25,29~]hentriaconta-1(29),2(31),3,5,7,9,21,23,25,27-decaen-17-one]	14 nM	7 nM			745 nM	2140 nM				
Cc1cc2[nH]ncc2c2c1CCCC(=O)OC[C@@H]1CCCN(C1)c1nc(OC[C@@]34CCCN3C[C@H](F)C4)nc3c(F)c-2ncc13 [Example 106]	4 nM	1 nM			29 nM	270 nM				
C[C@@]12CCCN(C1)c1nc(OC[C@@]34CCCN3C[C@H](F)C4)nc3c(F)c(ncc13)-c1cc(O)cc3c1[C@@H](CCCC(=O)N2)CCC3 [Example 27, (15R,21R)-31-Fluoro-8-(((2R,7aS)-2-fluorotetrahydro-1H-pyrrolo[1,2-a]pyrrol-7a(5H)-yl)methoxy)-27-hydroxy-15-methyl-3,7,9,11,16-pentaazahexacyclo[19.7.1.1˜2,6˜.1˜11,15˜.0˜5,10˜.0˜25,29˜]hentriaconta-1(29),2(31),3,5,7,9,25,27-octaen-17-one 2,2,2-trifluoroacetate salt]	7 nM	5 nM			180 nM	661 nM				
O=C1CCCc2c(F)ccc3cc(O)cc(c23)-c2ncc3c(nc(OC[C@@]45CCCN4C[C@H](F)C5)nc3c2F)N2CCC[C@](CF)(C2)O1 [Example 42]	4 nM	2 nM			38 nM	414 nM				
O=C1N[C@H]2CN(C[C@H]3C[C@H]32)c2nc(OC[C@@]34CCCN3C[C@H](F)C4)nc3c(F)c(ncc23)-c2c(c(Cl)cc3[nH]ncc23)CCC[C@@H]1F [Example 175, (23S,26R,27R,29S)-18-chloro-23,32-difluoro-4-(((2R,7aS)-2-fluorotetrahydro-1H-pyrrolo[1,2-a]pyrrol-7a(5H)-yl)methoxy)-1,3,5,9,14,15,25-heptaazaheptacyclo[24.4.1.1~6,10~.0~2,7~.0~11,19~.0~12,16~.0~27,29~]dotriaconta-2,4,6,8,10(32),11,13,16,18-nonaen-24-one]	5 nM	4 nM			27.7 nM	123 nM				
Fc1cc2[nH]ncc2c2c1CCCCOC[C@@H]1CCCCN(C1)c1nc(OC[C@@]34CCCN3C[C@H](F)C4)nc3c(F)c-2ncc13 [Example 239, (26R)-18,32-difluoro-4-(((2R,7aS)-2-fluorotetrahydro-1H-pyrrolo[1,2-a]pyrrol-7a(5H)-yl)methoxy)-24-oxa-1,3,5,9,14,15-hexaazahexacyclo[24.4.1.1~6, 10~.0~2,7~.0~11,19~.0~12,16~]dotriaconta-2,4,6(32),7,9,11,13,16,18-nonaene]	6 nM	5 nM			82.9 nM	527 nM				

Other lines, results leading:

IC50 [1, 4]	IC50 [2, 5]	IC50 [3, 6]	IC50 (AsPC-1 cells; AsPC-1, 72 h)	IC50 [3, 7]	IC50 (AsPC-1 cells; [8])	IC50 [1, 9]	IC50 [2, 10]	IC50 [3, 11]	IC50 (AsPC-1 cells; [12])	Molecule
19 nM	12 nM			545 nM	3970 nM					Fc1c2ncc3c(nc(OC[C@@]45CCCN4C[C@H](F)C5)nc13)N1CC[C@@H](COCCCCc3c(Cl)cc4[nH]ncc4c3-2)C1 [Example 254, (17R)-9-chloro-29-fluoro-23-(((2R,7aS)-2-fluorotetrahydro-1H-pyrrolo[1,2-a]pyrrol-7a(5H)-yl)methoxy)-15-oxa-5,6,20,22,24,28-hexaazahexacyclo[23.3.1.1~17,20~.0~2,10~.0~3,7~.0~21,26~]triaconta-1(29),2,4,7,9,21,23,25,27-nonaene]
6 nM	3 nM			16.3 nM	22 nM					C[C@@]12COCCN(C1)c1nc(OC[C@H]3CC[C@@H]4COCCN43)nc3c(F)c(ncc13)-c1c(c(Cl)cc3[nH]ncc13)CCCOC(=O)O2 [Example 308, (26S)-18-chloro-32-fluoro-4-((6R,8aR)-hexahydro-1H-pyrrolo[2,1-c][1,4]oxazin-6-ylmethoxy)-26-methyl-23,25,28-trioxa-1,3,5,9,14,15-hexaazahexacyclo[24.4.1.1~6,10~.0~2,7~.0~11,19~.0~12,16~]dotriaconta-2,4,6,8,10(32),11,13,16,18-nonaen-24-one]
						9 nM	3 nM	85.3 nM	404 nM	CC12COCCN(C1)c1nc(OC[C@@]34CCCN3C[C@H](F)C4)nc3c(F)c(ncc13)-c1c(c(Cl)cc3[nH]ncc13)CCCc1nc2no1 (mixture of isomers) [Example 379]
10 nM	6 nM	65.5 nM	889 nM							Cc1c2ncc3c(nc(OC[C@@]45CCCN4C[C@H](F)C5)nc13)N1CCOC[C@H](C1)OC(=O)OCCCc1c(Cl)cc3[nH]ncc3c1-2 (atropisomer, axis not shown) [Example 341, (26S)-18-chloro-4-(((2R,7aS)-2-fluorotetrahydro-1H-pyrrolo[1,2-a]pyrrol-7a(5H)-yl)methoxy)-32-methyl-23,25,28-trioxa-1,3,5,9,14,15-hexaazahexacyclo[24.4.1.1~6,10~.0~2,7~.0~11,19~.0~12,16~]dotriaconta-2,4,6,8,10(32),11,13,16,18-nonaen-24-one]
10 nM	4 nM			71.6 nM	153 nM					C[C@@]12COCCN(C1)c1nc(OC[C@@H]3CC[C@H]4COCCN43)nc3c(F)c(ncc13)-c1c(c(Cl)cc3[nH]ncc13)CCCOC(=O)O2 [Example 309, (26S)-18-chloro-32-fluoro-4-((6S,8aS)-hexahydro-1H-pyrrolo[2,1-c][1,4]oxazin-6-ylmethoxy)-26-methyl-23,25,28-trioxa-1,3,5,9,14,15-hexaazahexacyclo[24.4.1.1~6,10~.0~2,7~.0~11,19~.0~12,16~]dotriaconta-2,4,6,8,10(32),11,13,16,18-nonaen-24-one]
						21 nM	4 nM	261 nM	1940 nM	O[C@@H]1C[C@@H]2COCCCCc3c(Cl)cc4[nH]ncc4c3-c3ncc4c(nc(OC[C@@]56CCCN5C[C@H](F)C6)nc4c3F)N(C1)C2 [Example 406, (17S,19R)-9-Chloro-30-fluoro-24-(((2R,7aS)-2-fluorotetrahydro-1H-pyrrolo[1,2-a]pyrrol-7a(5H)-yl)methoxy)-15-oxa-5,6,21,23,25,29-hexaazahexacyclo[24.3.1.1˜17,21˜.0˜2,10˜.0˜3,7˜.0˜22,27˜]hentriaconta-1(30),2,4,7,9,22,24,26,28-nonaen-19-ol]
						27 nM	15 nM	673 nM	3120 nM	Fc1c2ncc3c(nc(OC[C@@]45CCCN4C[C@H](F)C5)nc13)N1CCOC[C@H](Cc3ncc(o3)CCc3c(Cl)cc4[nH]ncc4c3-2)C1 (single isomer, unassigned) [Example 375]
11 nM	3 nM			250 nM	1760 nM					O=C1COCCCc2c(Cl)cc3[nH]ncc3c2-c2ncc3c(nc(OC[C@@]45CCCN4C[C@H](F)C5)nc3c2F)N2CCCC[C@H](C2)N1 [Example 272, (27R)-18-chloro-33-fluoro-4-(((2R,7aS)-2-fluorotetrahydro-1H-pyrrolo[1,2-a]pyrrol-7a(5H)-yl)methoxy)-23-oxa-1,3,5,9,14,15,26-heptaazahexacyclo[25.4.1.1~6,10~.0~2,7~.0~11,19~.0~12,16~]tritriaconta-2,4,6,8,10(33),11,13,16,18-nonaen-25-one]
						15 nM	8 nM	371 nM	817 nM	CN(C)CC1(COc2nc3c4cnc(c(F)c4n2)-c2c(c(Cl)cc4[nH]ncc24)CCCCOCC2(F)CCCCN3C2)CC1 (stereo in doubt) [Example 400, 1-(1-((((26R)-18-chloro-26,32-difluoro-24-oxa-1,3,5,9,14,15-hexaazahexacyclo[24.4.1.1~6,10~.0~2,7~.0~11,19~.0~12,16~]dotriaconta-2,4,6,8,10(32),11,13,16,18-nonaen-4-yl)oxy)methyl)cyclopropyl)-N,N-dimethylmethanamine]
